Assay results taken from ChEMBL document CHEMBL1131717, “Uncarinic acids: phospholipase Cgamma1 inhibitors from hooks of Uncaria rhynchophylla” (Bioorg Med Chem Lett, 1999).
Converted amounts (≈) assume the structure as drawn.

Assays:
[1] = system: A549; assay: Growth inhibitory effect of compound was measured on A-549 human lung adenocarcinoma cancer cell line; format: functional, cell-based
[2] = system: HCT-15; assay: Growth inhibitory effect of compound was measured on HCT-15 human colon adenocarcinoma cancer cell line; format: functional, cell-based
[3] = system: HT1197; assay: Growth inhibitory effect of compound was measured on HT1197 human bladder adenocarcinoma cancer cell line; format: functional, cell-based
[4] = target: T1, 1-phosphatidylinositol 4,5-bisphosphate phosphodiesterase gamma-1 (Homo sapiens, UniProt P19174); assay: Inhibitory concentration was evaluated against phospholipase C-gamma1
T1 sequence (P19174 whole entry): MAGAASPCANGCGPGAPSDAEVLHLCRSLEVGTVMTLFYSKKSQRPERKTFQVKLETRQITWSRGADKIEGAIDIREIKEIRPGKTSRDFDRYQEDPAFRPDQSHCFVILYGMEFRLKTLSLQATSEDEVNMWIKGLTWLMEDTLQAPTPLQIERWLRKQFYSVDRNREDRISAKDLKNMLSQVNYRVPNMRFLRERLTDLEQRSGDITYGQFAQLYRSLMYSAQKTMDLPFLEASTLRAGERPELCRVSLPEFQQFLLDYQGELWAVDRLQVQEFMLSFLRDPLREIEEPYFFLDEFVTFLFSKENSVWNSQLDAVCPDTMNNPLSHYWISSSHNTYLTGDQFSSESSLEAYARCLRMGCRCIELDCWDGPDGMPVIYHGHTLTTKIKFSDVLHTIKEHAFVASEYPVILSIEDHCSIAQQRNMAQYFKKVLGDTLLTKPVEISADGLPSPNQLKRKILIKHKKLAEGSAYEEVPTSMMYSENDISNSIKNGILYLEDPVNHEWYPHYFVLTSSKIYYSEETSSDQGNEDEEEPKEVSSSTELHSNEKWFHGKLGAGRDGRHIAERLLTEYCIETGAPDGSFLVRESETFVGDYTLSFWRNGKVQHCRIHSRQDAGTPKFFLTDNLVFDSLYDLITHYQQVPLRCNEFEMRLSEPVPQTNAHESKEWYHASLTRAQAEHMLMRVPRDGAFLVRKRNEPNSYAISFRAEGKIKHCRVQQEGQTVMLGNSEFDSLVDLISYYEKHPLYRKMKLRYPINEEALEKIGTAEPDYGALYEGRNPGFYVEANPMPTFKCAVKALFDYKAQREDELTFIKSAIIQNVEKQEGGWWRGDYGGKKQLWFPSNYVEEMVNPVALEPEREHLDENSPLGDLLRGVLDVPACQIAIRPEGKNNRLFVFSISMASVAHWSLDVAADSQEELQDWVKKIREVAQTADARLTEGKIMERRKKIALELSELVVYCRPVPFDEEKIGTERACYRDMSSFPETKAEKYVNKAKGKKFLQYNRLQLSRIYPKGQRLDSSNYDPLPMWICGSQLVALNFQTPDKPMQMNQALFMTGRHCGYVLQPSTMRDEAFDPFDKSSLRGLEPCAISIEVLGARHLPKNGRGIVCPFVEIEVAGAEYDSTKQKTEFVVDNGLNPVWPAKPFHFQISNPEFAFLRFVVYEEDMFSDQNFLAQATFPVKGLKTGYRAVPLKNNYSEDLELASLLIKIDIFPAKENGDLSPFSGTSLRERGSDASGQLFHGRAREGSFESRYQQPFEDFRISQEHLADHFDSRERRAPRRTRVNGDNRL

[5] = system: MCF7; assay: Growth inhibitory effect of compound was measured on MCF-7 human breast adenocarcinoma cancer cell line; format: functional, cell-based

| SMILES | IC50 [1] | IC50 [2] | IC50 [3] | IC50 [4] | IC50 [5] |
| --- | --- | --- | --- | --- | --- |
| COc1cc(/C=C/C(=O)OC[C@@]23CC[C@@]4(C(=O)O)CCC(C)(C)C[C@H]4C2=CCC2[C@@]4(C)CC[C@H](O)C(C)(C)C4CC[C@]23C)ccc1O (stereo not given in full) | 0.73 µg/mL (≈ 1.13 µM) | 1.41 µg/mL (≈ 2.17 µM) | 3.53 µg/mL (≈ 5.44 µM) | 35.7 µM | 2.03 µg/mL (≈ 3.13 µM) |
| COc1cc(/C=C\C(=O)OC[C@@]23CC[C@@]4(C(=O)O)CCC(C)(C)C[C@H]4C2=CCC2[C@@]4(C)CC[C@H](O)C(C)(C)C4CC[C@]23C)ccc1O (stereo not given in full) | 1.79 µg/mL (≈ 2.76 µM) | 1.44 µg/mL (≈ 2.22 µM) | 2.34 µg/mL (≈ 3.61 µM) | 44.6 µM | 2.59 µg/mL (≈ 3.99 µM) |
